Active and inactive are the calls of the source. No cut-off for these calls is given here.
Columns and labels:
[1] = Inhibition of human sGC expressed in HUVEC cells assessed as reduction in GMP level incubated for 48 hrs in presence of NPS by ELISA; type: cell-based
[2] = Inhibition of human sGC expressed in HUVEC cells assessed as reduction in GMP level incubated for 48 hrs by ELISA; type: cell-based
[3] = system: HUVEC; experiment: Inhibition of full length human sGC expressed in HUVEC cells assessed as increase in oxidation of heme at 20 uM after 2 hrs by spectroscopic analysis; type: cell-based
[4] = Inhibition of bovine lung sGC assessed as reduction in GMP level incubated for 48 hrs in presence of NPS by ELISA; type: tissue-based, Bos taurus
[5] = Inhibition of human sGC expressed in HUVEC cells assessed as reduction in GMP level incubated for 24 hrs in presence of NPS by ELISA; type: cell-based
[6] = Inhibition of bovine lung sGC assessed as reduction in GMP level incubated for 2 hrs in presence of NPS by ELISA; type: tissue-based, Bos taurus
[7] = Inhibition of human sGC expressed in HUVEC cells assessed as reduction in GMP level incubated for 24 hrs by ELISA; type: cell-based
[8] = Inhibition of bovine lung sGC assessed as reduction in GMP level incubated for 2 hrs in presence of NPS/BAY-412272 by ELISA; type: tissue-based, Bos taurus
[9] = Inhibition of bovine lung sGC assessed as reduction in GMP level incubated for 2 hrs in presence of BAY-412272 by ELISA; type: tissue-based, Bos taurus
[10] = species: Bos taurus; experiment: Selectivity ratio of IC50 for inhibition of bovine lung sGC assessed as reduction in GMP level in presence of NPS/BAY-412272 to IC50 for inhibition of bovine lung sGC assessed as reduction in GMP level in presence of NPS; type: tissue-based
[11] = Inhibition of bovine lung sGC assessed as reduction in GMP level incubated for 2 to 12 hrs in presence of NPS by ELISA; type: tissue-based, Bos taurus
[12] = system: HEPC-CB.1; experiment: Inhibition of angiogenesis in HEPC-CB1 cells assessed as decrease in total length of pseudovessels at 20 uM after 13 hrs by fluorescence inverted microscopic analysis; type: functional, cell-based; details: Homo sapiens
[13] = system: HEPC-CB.1; experiment: Inhibition of angiogenesis in HEPC-CB1 cells assessed as decrease in number of closed structures at 20 uM after 13 hrs by fluorescence inverted microscopic analysis; type: functional, cell-based; details: Homo sapiens
[14] = system: HEPC-CB.1; experiment: Inhibition of angiogenesis in HEPC-CB1 cells assessed as decrease in pseudovessels at 20 uM after 13 hrs by fluorescence inverted microscopic analysis; type: functional, cell-based; details: Homo sapiens
[15] = system: Hepatocyte; experiment: Cytotoxicity against rat hepatocytes assessed as induction intracellular LDH release incubated for 8 to 24 hrs; type: cell-based
[16] = Inhibition of Yersinia pestis FabZ
[17] = Inhibition of Francisella tularensis FabZ
[18] = Inhibition of human sGC expressed in HUVEC cells assessed as reduction in GMP level incubated for 2 hrs by ELISA; type: cell-based
[19] = system: HUVEC; experiment: Selectivity ratio of IC50 for inhibition of human sGC expressed in HUVEC cells assessed as reduction in GMP level incubated for 2 hrs to human sGC expressed in HUVEC cells assessed as reduction in GMP level incubated for 2 hrs in presence of NPS; type: cell-based
[20] = system: HUVEC; experiment: Inhibition of human sGC expressed in HUVEC cells assessed as reduction in GMP level at 2 uM in presence of NPS by ELISA relative to control; type: cell-based
[21] = system: HUVEC; experiment: Selectivity ratio of inhibition of human sGC expressed in HUVEC cells assessed as reduction in GMP level at 2 uM in presence of NPS to inhibition of human sGC expressed in HUVEC cells assessed as reduction in GMP level at 2 uM in presence of NPS/BAY-412272; type: cell-based
[22] = system: HUVEC; experiment: Inhibition of human sGC expressed in HUVEC cells assessed as reduction in GMP level at 20 uM in presence of NPS/BAY-412272 by ELISA relative to control; type: cell-based
[23] = system: HEPC-CB.1; experiment: Inhibition of angiogenesis in HEPC-CB1 cells assessed as decrease in total length of pseudovessels at 10 uM after 13 hrs by fluorescence inverted microscopic analysis; type: functional, cell-based; details: Homo sapiens
[24] = system: HEPC-CB.1; experiment: Inhibition of angiogenesis in HEPC-CB1 cells assessed as decrease in number of closed structures at 10 uM after 13 hrs by fluorescence inverted microscopic analysis; type: functional, cell-based; details: Homo sapiens
[25] = system: HEPC-CB.1; experiment: Inhibition of angiogenesis in HEPC-CB1 cells assessed as decrease in pseudovessels at 10 uM after 13 hrs by fluorescence inverted microscopic analysis; type: functional, cell-based; details: Homo sapiens
[26] = Inhibition of rat small intestine GST using CDNB as substrate by spectrophotometric method; type: tissue-based
[27] = target: T1, Dopamine beta-hydroxylase (Homo sapiens, UniProt P09172); experiment: Inhibition of Dopamine beta-hydroxylase (unknown origin) incubated for 10 mins
T1 sequence (P09172 whole entry): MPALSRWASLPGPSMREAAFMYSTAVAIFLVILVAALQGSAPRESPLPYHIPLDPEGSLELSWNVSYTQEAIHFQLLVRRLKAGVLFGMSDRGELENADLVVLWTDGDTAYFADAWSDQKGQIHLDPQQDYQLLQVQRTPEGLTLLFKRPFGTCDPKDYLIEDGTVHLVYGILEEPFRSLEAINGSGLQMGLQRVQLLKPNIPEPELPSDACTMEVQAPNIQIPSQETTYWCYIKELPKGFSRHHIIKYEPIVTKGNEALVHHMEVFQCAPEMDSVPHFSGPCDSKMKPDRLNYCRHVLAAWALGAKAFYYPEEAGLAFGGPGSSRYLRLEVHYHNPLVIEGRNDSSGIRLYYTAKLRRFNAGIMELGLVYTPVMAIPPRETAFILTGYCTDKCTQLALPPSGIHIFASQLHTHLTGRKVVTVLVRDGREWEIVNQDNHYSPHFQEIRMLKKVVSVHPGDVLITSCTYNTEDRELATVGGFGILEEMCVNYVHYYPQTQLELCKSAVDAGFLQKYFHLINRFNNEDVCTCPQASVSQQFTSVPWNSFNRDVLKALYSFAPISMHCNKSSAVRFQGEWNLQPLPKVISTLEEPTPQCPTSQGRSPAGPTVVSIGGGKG

[28] = system: HUVEC; experiment: Selectivity ratio of inhibition of human sGC expressed in HUVEC cells assessed as reduction in GMP level at 20 uM in presence of NPS to inhibition of human sGC expressed in HUVEC cells assessed as reduction in GMP level at 20 uM in presence of NPS/BAY-412272; type: cell-based
[29] = Inhibition of angiogenesis in HEPC-CB1 cells assessed as decrease in total length of pseudovessels at 10 to 20 uM after 13 hrs by fluorescence inverted microscopic analysis; type: functional, Homo sapiens, HEPC-CB.1; details: dose 10-20 µM
[30] = Inhibition of angiogenesis in HEPC-CB1 cells assessed as decrease in number of closed structures at 10 to 20 uM after 13 hrs by fluorescence inverted microscopic analysis; type: functional, Homo sapiens, HEPC-CB.1; details: dose 10-20 µM
[31] = Inhibition of angiogenesis in HEPC-CB1 cells assessed as decrease in pseudovessels at 10 to 20 uM after 13 hrs by fluorescence inverted microscopic analysis; type: functional, Homo sapiens, HEPC-CB.1; details: dose 10-20 µM

Structure (SMILES) | inhibition [3] | IC50 [5] [nM] | IC50 [6] [nM] | IC50 [7] [nM] | IC50 [8] [nM] | IC50 [9] [nM] | Ratio IC50 [10] | IC50 [11] [nM] | other results
O=C1C(O)=C(O)C(=O)c2c(O)c(Cl)cc(O)c21 | inactive | – | – | – | – | – | – | – | IC50 [1]: 13000 nM; IC50 [2]: 12000 nM; IC50 [4]: 3000 nM
COc1cc(C)c2c(c1C=O)Oc1c(c(C)c(O)c3c1C(O)OC3=O)OC2=O (configuration not stated) [STICTIC ACID] | inactive | 47000 | 300 | 44000 | 2500 | 2600 | 2 | 200 | inhibition [12]: Active; inhibition [13]: Active; inhibition [14]: Active; IC50 [15]: ≤ 13000 nM; IC50 [16]: 13000 nM; IC50 [17]: 13000 nM
CC(=O)OC1=C(O)C(=O)c2c(OC(C)=O)ccc(OC(C)=O)c2C1=O | Active | 28000 | 500 | 29000 | 1000 | 1400 | 2 | 200 | –
Cc1cc(O)c2c(=O)c3c(O)cc(O)c4c5c(O)cc(O)c6c(=O)c7c(O)cc(C)c8c1c2c(c34)c(c78)c65 [HYPERICIN] | – | 700 | 400 | – | 350 | 320 | – | 200 | IC50 [18]: 400 nM; Ratio IC50 [19]: 2; inhibition [20]: < 95%; Ratio IC50 [21]: 3; inhibition [22]: Active; inhibition [23]: Active; inhibition [24]: Active; inhibition [25]: Active; Ki [26]: 200 nM; IC50 [27]: 21000 nM
COc1c(O)c2c(=O)cc(OC)c3c4c(OC)cc(O)c5c(=O)c(OC)c6c(c(c1[C@H](C(C)=O)[C@](C)(O)C6)c23)c54 | – | 1500 | 1500 | – | – | – | – | 1500 | IC50 [18]: 800 nM; Ratio IC50 [19]: 2; inhibition [20]: < 95%; Ratio IC50 [21]: 3; Ratio IC50 [28]: 2; inhibition [23]: Active; inhibition [24]: Active; inhibition [25]: Active
O=C1C(O)=C(O)C(=O)c2c(O)ccc(O)c21 | inactive | – | – | – | – | – | – | – | IC50 [1]: 10000 nM; IC50 [2]: 12000 nM; IC50 [4]: 5000 nM; fold change (FC) [29]: 2; fold change (FC) [30]: 2; fold change (FC) [31]: 2
COc1cc(C/C=C/c2ccccc2)c(OC)cc1O [VIOLASTYRENE] | Active | 16000 | 800 | 16000 | 1800 | 4900 | 2 | 800 | –

Reference: ChEMBL document CHEMBL4715872, “Soluble Guanylate Cyclase Inhibitors Discovered among Natural Compounds” (J Nat Prod, 2020)
